The target in series [1] is T1, human SGLT2 (Homo sapiens, UniProt P31639).
T1 construct: expressed in transfected cells; host or cells: CHO-FlpIn (Invitrogen)
T1 sequence (P31639 1-672): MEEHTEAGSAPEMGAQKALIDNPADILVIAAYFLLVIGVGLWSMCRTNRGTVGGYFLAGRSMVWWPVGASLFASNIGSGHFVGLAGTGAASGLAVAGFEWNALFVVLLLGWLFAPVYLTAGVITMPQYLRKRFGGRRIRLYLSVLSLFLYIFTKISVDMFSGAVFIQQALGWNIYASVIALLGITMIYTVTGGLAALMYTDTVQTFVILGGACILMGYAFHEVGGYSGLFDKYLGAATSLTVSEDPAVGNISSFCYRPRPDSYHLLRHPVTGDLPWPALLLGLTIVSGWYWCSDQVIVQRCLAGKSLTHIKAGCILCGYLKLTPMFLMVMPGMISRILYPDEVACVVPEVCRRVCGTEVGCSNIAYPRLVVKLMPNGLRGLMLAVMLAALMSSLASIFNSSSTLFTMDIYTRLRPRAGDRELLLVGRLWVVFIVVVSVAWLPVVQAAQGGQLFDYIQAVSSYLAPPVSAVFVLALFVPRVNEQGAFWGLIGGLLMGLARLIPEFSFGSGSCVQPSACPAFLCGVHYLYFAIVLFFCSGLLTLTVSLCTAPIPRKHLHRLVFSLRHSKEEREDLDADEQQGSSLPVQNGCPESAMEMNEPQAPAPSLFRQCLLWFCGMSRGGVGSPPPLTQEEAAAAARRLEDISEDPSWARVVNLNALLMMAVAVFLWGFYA
Kind of series: SGLT2 functional assay: inhibition of AMG uptake in CHO-FlpIn cells stably expressing human SGLT2. In kind it is cell-based. Conditions: individual runs (Run No.), read-out: hSGLT2 IC50. An excerpt: The SGLT2 functional assay was designed to detect the inhibition of methyl-alpha-D glucopyranoside (AMG—a non-metabolizable form of glucose) uptake via the SGLT2 transporter. The SGLT2 transporter recovers glucose from the proximal tubules of the kidney; its inhibition results in sugar wasted in the urine. The positive control compound, Phlorizin, is a known inhibitor of glucose uptake for SGLT2 and was used for comparing the high percent effect of SGLT2 inhibition of the test compounds.
CHO-FlpIn (Invitrogen, Carlsbad, Calif.) cells stably expressing human SGLT2 (pcDNA5/FRT) were plated in Iso-TC 96 well plates (Perkin Elmer, Waltham, Mass.) at a density of 100,000 cells/well in 100 microL of growth media (1:1 F-12/DMEM media (Gibco, Carlsbad, Calif.), 10% FBS (Sigma, St. Louis Mo.), 1× Pen/Strep (Gibco, Carlsbad, Calif.), 600 microg/mL Hygromycin (Invitrogen, Carlsbad, Calif.)). Prior to treating with test compound, confluent cells were serum starved for 2 hours at 37° C. in 1:1 F-12/DMEM media, replacing with fresh F-12/DMEM media after 1 hour. […] Cell plates were then incubated for 3 hours at 37° C. for AMG uptake.

The nature of series [2]: Pharmacokinetic testing in rats (IV or PO). Conditions: rat, IV, 2 mg/kg. In kind it is in vivo. As to the method:
Examples 1A, 2A, 4A, 12A, and 14A were tested in rats to assess pharmacokinetic parameters including maximum concentration (Cmax), area under the plasma concentration time curve (AUC), clearance (CL), steady state volume of distribution (Vss), half life (t1/2), and bioavailability (F). Male Sprague Dawley rats (˜300 g) were used. Rats received compound by intravenous (IV) or oral gavage (PO) administration and the doses tested including vehicle to formulate dosing solutions are listed in Table 5.
Following IV or PO administration, 0.2 mL blood was sampled from the jugular vein at various timepoints (Table 5). Twenty microL aliquots of plasma samples and standards were subjected to protein precipitation with acetonitrile containing an internal standard. Samples were vortexed and centrifuged to obtain supernatant which was analyzed by LC-MS/MS. Analyst (Version 1.4.1) was used to measure peak areas and peak area ratios of analyte to internal standard were calculated. LC-MS/MS conditions are as follows: Mass Spectrometer+Source Type was Sciex API 4000−Turbo Spray; HPLC pump was Shimadzu; Autosampler was CTC PAL Autosampler; Injection volume was 3.0 to 10 microL; A gradient was used with mobile phase A: 10 mM ammonium acetate and 1% Isopropyl alcohol in water; B: Acetonitrile; Flowrate 0.300 mL per minute (Column 2.0×30 mm 5 microm LUNA C18 column (phenomenex)). Detection mode was negative.
A calibration curve was constructed from the peak area ratios of the standards to the internal standard by applying a weighted linear (1/x or 1/x2) regression. The dynamic range of the standard curve was 5.00 ng/mL to 5000 ng/mL.
Pharmacokinetic parameters were determined from individual animal data using non-compartmental analysis in Watson (version 7.2). Concentrations below the limit of quantitation (BLQ) were recorded as 0 ng/mL for use in calculations.
The following calculations were used: AUC(0−τ)=Determined using the linear trapezoidal method AUC(0−□)=AUC(0−τ) plus extrapolated area determined by dividing plasma concentration at τ by the slope of the terminal log-linear phase CL=Dose/AUC(0−∞) Vdss=CL×MRT Cmax=Recorded directly from plasma concentration time curve Tmax=Recorded directly from plasma concentration time curve t½=ln(0.5)/slope of the terminal log-linear phase F %=AUC(0−∞)PO per dose/AUC(0−∞)IV per dose C(0)=Extrapolated by linear regression from the apparent distribution phase following IV administration MRT=AUMC(AUC(0−∞)/AUC(0−∞)

Series [3] concerns the target T2, hSGLT1 (Homo sapiens, UniProt P13866).
T2 sequence (P13866 1-664): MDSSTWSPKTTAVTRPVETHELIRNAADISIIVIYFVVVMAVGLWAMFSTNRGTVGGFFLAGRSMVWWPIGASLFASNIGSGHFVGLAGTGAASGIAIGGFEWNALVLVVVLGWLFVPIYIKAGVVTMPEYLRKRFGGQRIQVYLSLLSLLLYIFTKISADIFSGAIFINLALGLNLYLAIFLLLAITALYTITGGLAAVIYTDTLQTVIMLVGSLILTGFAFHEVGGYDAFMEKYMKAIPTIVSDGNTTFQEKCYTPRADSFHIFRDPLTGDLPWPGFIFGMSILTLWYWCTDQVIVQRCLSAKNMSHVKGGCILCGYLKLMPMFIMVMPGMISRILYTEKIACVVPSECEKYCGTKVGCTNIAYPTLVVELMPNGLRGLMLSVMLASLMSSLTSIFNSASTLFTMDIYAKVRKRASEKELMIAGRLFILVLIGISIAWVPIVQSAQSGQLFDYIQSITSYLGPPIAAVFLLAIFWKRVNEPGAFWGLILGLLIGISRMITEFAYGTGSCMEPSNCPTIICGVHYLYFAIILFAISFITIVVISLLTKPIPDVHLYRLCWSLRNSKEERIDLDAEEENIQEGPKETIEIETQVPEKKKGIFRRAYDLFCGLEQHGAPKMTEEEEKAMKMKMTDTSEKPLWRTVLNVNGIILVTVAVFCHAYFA
Kind of series: SGLT1 functional assay: hSGLT1 IC50 (selectivity counter-screen to the SGLT2 AMG uptake assay). The format is cell-based. The conditions noted are these: individual runs (Run No.). On the technique in general: A counterscreen serves to expose hits that act by an unwanted route or on another target.

Values joined by “and” are separate entries in the source; they are usually repeats but may differ in a detail not shown here. Equal values may be shown once.

Broadly, the IC50 is the concentration needed to halve the response being measured. By AUC(0-inf) is commonly meant the area under the concentration-time curve extrapolated to infinity. Low readings indicate low exposure, high ones high exposure. Usually half-life stands for the time needed for the level to fall by half in the phase considered. Lower therefore signals fast loss.

`CCOc1ccc(Cc2cc([C@]34OC[C@](CO)(O3)[C@@H](O)[C@H](O)[C@H]4O)ccc2C)cc1` [Example 2A, (1S,2S,3S,4R,5S)-5-[3-(4-ethoxy-benzyl)-4-methyl-phenyl]-1-hydroxymethyl-6,8-dioxa-bicyclo[3.2.1]octane-2,3,4-triol]: in series [1], the IC50 was 0.827 nM and 1.53 nM and 0.942 nM and 0.741 nM and 1.58 nM and 1.05 nM. The compound further showed an AUC(0-inf) in series [2] (male, Sprague Dawley, plasma) of 1340 ng·h/mL. In series [2], this compound returned a CL of 27.7 mL/min/kg, a Vss of 1.03 L/kg and a t1/2 of 0.94 h. Also, the IC50 in series [3] was 1240 nM and > 1000 nM and 679 nM.
Consider `COc1ccc(Cc2cc([C@]34OC[C@](CO)(O3)[C@@H](O)[C@H](O)[C@@H]4O)ccc2Cl)cc1` [Example 3B, (1S,2S,3S,4S,5S)-5-[4-chloro-3-(4-methoxy-benzyl)-phenyl]-1-hydroxymethyl-6,8-dioxa-bicyclo[3.2.1]octane-2,3,4-triol], for which the IC50 in series [1] is 41.6 nM and 40.8 nM and 27.9 nM and 62.2 nM; in series [3], > 10000 nM.
As to `CCOc1ccc(Cc2cc([C@]34OC[C@](CO)(O3)[C@@H](O)[C@H](O)[C@@H]4O)ccc2Cl)cc1` [Example 4B, (1S,2S,3S,4S,5S)-5-[4-chloro-3-(4-ethoxy-benzyl)-phenyl]-1-hydroxymethyl-6,8-dioxa-bicyclo[3.2.1]octane-2,3,4-triol], the half-maximal inhibitory concentration (IC50) in series [1] was 122 nM and 66.8 nM and 81.7 nM; in series [3] it was > 10000 nM.
Turning to `COc1ccc(Cc2cc([C@]34OC[C@](CO)(O3)[C@@H](O)[C@H](O)[C@H]4O)ccc2F)cc1` [Example 5A, (1S,2S,3S,4R,5S)-5-[4-fluoro-3-(4-methoxy-benzyl)-phenyl]-1-hydroxymethyl-6,8-dioxa-bicyclo[3.2.1]octane-2,3,4-triol], the 50% inhibitory concentration (IC50) in series [3] is > 10000 nM and > 1000 nM and 5790 nM.
Take `COc1ccc(Cc2cc([C@]34OC[C@](CO)(O3)[C@@H](O)[C@H](O)[C@@H]4O)ccc2F)cc1` [Example 5B, (1S,2S,3S,4S,5S)-5-[4-fluoro-3-(4-methoxy-benzyl)-phenyl]-1-hydroxymethyl-6,8-dioxa-bicyclo[3.2.1]octane-2,3,4-triol]: the values for the concentration for half-maximal inhibition (IC50) in series [1] and in series [3] were 186 nM and > 10000 nM, respectively.
With `COc1ccc(Cc2cc([C@]34OC[C@](CO)(O3)[C@@H](O)[C@H](O)[C@H]4O)ccc2C#N)cc1` [Example 6A, 2-(4-methoxybenzyl)-4-((1S,2S,3S,4R,5S)-2,3,4-trihydroxy-1-(hydroxymethyl)-6,8-dioxa-bicyclo[3,2,1]oct-5-yl)-benzonitrile], the IC50 in series [1] is 18.7 nM and 9.99 nM and 13.5 nM and 13.4 nM and 5.71 nM and 7.67 nM; in series [3] it was > 10000 nM and > 1000 nM and 8930 nM.
Take `CCOc1ccc(Cc2cc([C@]34OC[C@](CO)(O3)[C@@H](O)[C@H](O)[C@H]4O)ccc2C#N)cc1` [Example 7A, 2-(4-ethoxybenzyl)-4-((1S,2S,3S,4R,5S)-2,3,4-trihydroxy-1-(hydroxymethyl)-6,8-dioxa-bicyclo[3,2,1]oct-5-yl)-benzonitrile]: the IC50 was 10.6 nM and 6.38 nM and 5.88 nM and 6.11 nM in series [1]; > 10000 nM in series [3].
Turning to `CCOc1ccc(Cc2cc([C@]34OC[C@](CO)(O3)[C@@H](O)[C@H](O)[C@H]4O)ccc2F)cc1` [Example 10A], in series [3], the IC50 is > 10000 nM.
Regarding `CCOc1ccc(Cc2cc([C@]34OC[C@](CO)(O3)[C@@H](O)[C@H](O)[C@@H]4O)ccc2F)cc1` [Example 10B, (1S,2S,3S,4S,5S)-5-[3-(4-ethoxy-benzyl)-4-fluoro-phenyl]-1-hydroxymethyl-6,8-dioxa-bicyclo[3.2.1]octane-2,3,4-triol], the IC50 was 127 nM and 103 nM in series [1]; > 10000 nM in series [3].
Regarding `OC[C@@]12CO[C@@](c3ccc(F)c(Cc4ccc(OC5CCOC5)cc4)c3)(O1)[C@H](O)[C@@H](O)[C@@H]2O` (stereo partly drawn) [Example 11A, (1S,2S,3S,4R,5S)-5-{4-fluoro-3-[4-(tetrahydro-furan-3-yloxy)-benzyl]-phenyl}-1-hydroxymethyl-6,8-dioxa-bicyclo[3.2.1]octane-2,3,4-triol], the concentration for half-maximal inhibition (IC50) in series [1] was 9.6 nM and 11.9 nM and 19.8 nM and 7.13 nM; in series [3], > 10000 nM.
In series [2] (male, Sprague Dawley, plasma), `OC[C@@]12CO[C@@](c3ccc(F)c(Cc4ccc(Cl)cc4)c3)(O1)[C@H](O)[C@@H](O)[C@@H]2O` [Example 12A, (1S,2S,3S,4R,5S)-5-[3-(4-chlorobenzyl)-4-fluorophenyl]-1-hydroxymethyl-6,8-dioxabicyclo[3.2.1]octane-2,3,4-triol] had an AUC(0-inf) of 2200 ng·h/mL, a clearance of 15.9 mL/min/kg and a half-life of 3.9 h. The Vd in series [2] (male, Sprague Dawley, plasma, read-out: Vss) was 3.68 L/kg. Besides, the IC50 in series [3] is > 10000 nM and 5780 nM.
Regarding `OC[C@@]12CO[C@@](c3ccc(F)c(Cc4ccc(Cl)cc4)c3)(O1)[C@@H](O)[C@@H](O)[C@@H]2O` [Example 12B, (1S,2S,3S,4S,5S)-5-[3-(4-chlorobenzyl)-4-fluorophenyl]-1-hydroxymethyl-6,8-dioxabicyclo[3.2.1]octane-2,3,4-triol], the IC50 in series [1] is 32.3 nM; in series [3], > 3160 nM.
`OC[C@@]12CO[C@@](c3ccc(F)c(Cc4ccc(OC5COC5)cc4)c3)(O1)[C@H](O)[C@@H](O)[C@@H]2O` [Example 13A, (1S,2S,3S,4R,5S)-5-{4-fluoro-3-[4-(oxetan-3-yloxy)-benzyl]-phenyl}-1-hydroxymethyl-6,8-dioxa-bicyclo[3.2.1]octane-2,3,4-triol]: the IC50 was 14.9 nM and 17.8 nM in series [1]; > 10000 nM in series [3].

The values are drawn from US8080580B2, “Dioxa-bicyclo[3.2.1]octane-2,3,4-triol derivatives” (Pfizer Inc., priority 2008, dated 2011).
